Key:
[1] = molecular target: T1, Tyrosyl-DNA phosphodiesterase 1 (Homo sapiens, UniProt Q9NUW8); assay: Inhibition of Tdp1 (unknown origin) up to 40 uM using 5'-(6-TAMN-AGGATCTAAAAGACTT-BHQ-)3' as substrate pretreated for 30 mins followed by substrate addition by fluorescence assay
[2] = molecular target: T1, Tyrosyl-DNA phosphodiesterase 1; assay: Inhibition of Tdp1 (unknown origin) using 5'-(6-TAMN-AGGATCTAAAAGACTT-BHQ-)3' as substrate pretreated for 30 mins followed by substrate addition by fluorescence assay

T1 sequence (Q9NUW8 whole entry): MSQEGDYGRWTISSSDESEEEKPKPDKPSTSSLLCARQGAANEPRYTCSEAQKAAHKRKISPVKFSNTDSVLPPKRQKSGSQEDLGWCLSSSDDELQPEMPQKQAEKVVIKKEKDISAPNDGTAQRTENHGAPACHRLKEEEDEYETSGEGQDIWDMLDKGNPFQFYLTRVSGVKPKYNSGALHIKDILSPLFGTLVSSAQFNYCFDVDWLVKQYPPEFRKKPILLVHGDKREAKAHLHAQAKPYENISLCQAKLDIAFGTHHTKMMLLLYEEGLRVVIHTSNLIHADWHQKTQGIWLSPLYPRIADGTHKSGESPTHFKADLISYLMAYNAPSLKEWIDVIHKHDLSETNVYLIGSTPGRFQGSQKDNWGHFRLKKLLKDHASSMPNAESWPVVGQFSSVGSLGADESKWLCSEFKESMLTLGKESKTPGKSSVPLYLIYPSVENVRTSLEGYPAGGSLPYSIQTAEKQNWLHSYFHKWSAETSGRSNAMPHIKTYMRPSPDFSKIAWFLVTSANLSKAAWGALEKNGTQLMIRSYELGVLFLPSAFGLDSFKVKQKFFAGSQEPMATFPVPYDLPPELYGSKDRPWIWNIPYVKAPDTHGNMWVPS

| inhibition [1] | IC50 [2] [nM] | SMILES |
| --- | --- | --- |
| Dose-dependent effect |  | O=c1cc(O)cc(/C=C/c2ccc(O)c(O)c2)o1 |
|  | 1000 | O=c1cc(O)cc([C@H]2[C@H](c3ccc(O)cc3)[C@H](c3cc(O)cc(=O)o3)[C@H]2c2ccc(O)cc2)o1 |
| Dose-dependent effect |  | O=c1cc(O)cc(/C=C/c2ccc(O)cc2)o1 |

Reference: ChEMBL document CHEMBL4052813, “Achyrodimer F, a tyrosyl-DNA phosphodiesterase I inhibitor from an Australian fungus of the family Cortinariaceae” (Bioorg Med Chem Lett, 2017)
